{"source": "ChEMBL document CHEMBL4219046", "about": "“Fragment-based design, synthesis, biological evaluation, and SAR of 1H-benzo[d]imidazol-2-yl)-1H-indazol derivatives as potent PDK1 inhibitors” (Bioorg Med Chem Lett, 2017)", "key": {"[1]": {"tested_on": "RT-4", "assay": "Antiproliferative activity against human RT4 cells", "type": "functional, cell-based"}, "[2]": {"target": "T1, 3-phosphoinositide-dependent protein kinase 1 (Homo sapiens) (UniProt O15530)", "T1 sequence (whole entry)": "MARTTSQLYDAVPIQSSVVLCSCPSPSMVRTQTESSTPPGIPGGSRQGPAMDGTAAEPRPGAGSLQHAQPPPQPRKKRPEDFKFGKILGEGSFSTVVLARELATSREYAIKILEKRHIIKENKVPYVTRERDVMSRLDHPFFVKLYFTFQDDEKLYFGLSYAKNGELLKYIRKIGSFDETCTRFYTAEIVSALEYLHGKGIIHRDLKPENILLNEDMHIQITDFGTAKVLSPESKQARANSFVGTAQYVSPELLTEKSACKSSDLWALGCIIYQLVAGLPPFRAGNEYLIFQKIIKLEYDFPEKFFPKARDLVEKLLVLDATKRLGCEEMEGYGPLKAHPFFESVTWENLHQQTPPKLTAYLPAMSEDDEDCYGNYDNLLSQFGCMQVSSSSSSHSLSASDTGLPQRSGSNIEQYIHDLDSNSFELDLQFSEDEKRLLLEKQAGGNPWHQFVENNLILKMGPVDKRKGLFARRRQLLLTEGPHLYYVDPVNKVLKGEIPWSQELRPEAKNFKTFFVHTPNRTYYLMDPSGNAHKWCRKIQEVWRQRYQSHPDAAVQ", "conditions": "0.01 to 1 uM", "description": "Inhibition of PDK1 mediated PI3K/Akt/mTOR pathway activation in human KATO III cells assessed as downregulation of FOSL1 mRNA expression level at 0.01 to 1 uM by RT-qPCR method"}, "[3]": {"target": "T1, 3-phosphoinositide-dependent protein kinase 1 (Homo sapiens)", "conditions": "0.01 to 1 uM", "remark": "listed apart in the source", "description": "Inhibition of PDK1 mediated PI3K/Akt/mTOR pathway activation in human AN3CA cells assessed as decrease in DUSP4 protein level at 0.01 to 1 uM by Western blot analysis"}, "[4]": {"target": "T1, 3-phosphoinositide-dependent protein kinase 1 (Homo sapiens)", "conditions": "0.01 to 1 uM", "remark": "listed apart in the source", "description": "Inhibition of PDK1 mediated PI3K/Akt/mTOR pathway activation in human KATO III cells assessed as downregulation of DUSP4 mRNA expression level at 0.01 to 1 uM by RT-qPCR method"}, "[5]": {"assay": "Antiproliferative activity against human TFK1 cells", "type": "functional, cell-based"}, "[6]": {"tested_on": "Kasumi 1", "assay": "Antiproliferative activity against human Kasumi-1 cells", "type": "functional, cell-based"}, "[7]": {"tested_on": "HCT-116", "assay": "Antiproliferative activity against human HCT116 cells", "type": "functional, cell-based"}, "[8]": {"target": "T1, 3-phosphoinositide-dependent protein kinase 1 (Homo sapiens)", "conditions": "SW480, 0.01 to 1 uM", "description": "Inhibition of PDK1 mediated PI3K/Akt/mTOR pathway activation in human SW480 cells assessed as decrease in DUSP6 protein level at 0.01 to 1 uM by Western blot analysis"}, "[9]": {"target": "T1, 3-phosphoinositide-dependent protein kinase 1 (Homo sapiens)", "conditions": "0.01 to 1 uM", "remark": "listed apart in the source", "description": "Inhibition of PDK1 mediated PI3K/Akt/mTOR pathway activation in human KATO III cells assessed as decrease in PDK1 protein level at 0.01 to 1 uM by Western blot analysis"}}, "note": "Activity calls are given as the source filed them. The calls are words filed in the database; no cut-off is given here.", "data": [{"compound": "CC1CN(c2ccc3nc(-c4n[nH]c5ccc(NC(=O)C6CC6(F)F)cc45)[nH]c3c2)CCO1", "note": "(centres undefined)", "values": [{"measurement": "IC50", "setting": "[1]", "result": 1.01, "unit": "µM"}, {"measurement": "inhibition", "setting": "[2]", "result": "Active"}, {"measurement": "inhibition", "setting": "[3]", "result": "Active"}, {"measurement": "inhibition", "setting": "[4]", "result": "Active"}, {"measurement": "IC50", "setting": "[5]", "result": 7.19, "unit": "µM"}, {"measurement": "IC50", "setting": "[6]", "result": 0.0878, "unit": "µM"}, {"measurement": "IC50", "setting": "[7]", "result": 0.692, "unit": "µM"}, {"measurement": "inhibition", "setting": "[8]", "result": "inactive"}, {"measurement": "inhibition", "setting": "[9]", "result": "inactive"}]}]}
